The values below are quoted from earlier work in US11478001B2, “Methods of administering a pre-operative carbohydrate-rich beverage composition” (ClearFast Inc., priority 2014, dated 2022).

The conditions of the series: short-term oral administration.

Take `NC(=O)NCCC[C@H](N)C(=O)O` [L-citrulline]: the safety and tolerability result was “safe and well tolerated”.
